Article PMC12543283, “TastepepAI: An artificial intelligence platform for taste peptide de novo design” (PLOS Computational Biology, 2025)
Ends that are not written are not given here.

Tests used:
[1] = system: human embryonic kidney cells (HEK293T)
[2] = system: human pancreatic ductal epithelial cells (HPNE)
[3] = system: human umbilical vein endothelial cells (HUVEC)
[4] = Electronic tongue analysis (Taste-Sensing System SA 402B); parameters: unit not given here; settings: reference solution 30 mM KCl + 0.3 mM tartaric acid as baseline, first measurement excluded; for Umami: sensor AAE; for Umami / Bitter / Sweet: detection threshold 0, room temperature; for Umami / Bitter / Sour / Salty: four replicates; for Sour: detection threshold -13, room temperature; for Salty: detection threshold -6, room temperature; for Sweet: measured five times
How it was run: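 Samples were tested at 0.1 and 1.0 mg/mL on an SA 402B e-tongue fitted with sourness, saltiness, bitterness, sweetness and umami sensors, with 30 mM KCl/0.3 mM tartaric acid as reference and baseline. Thresholds were −13 for sour, −6 for salty and 0 for the rest. Runs at room temperature: four replicates, five for sweetness, first reading discarded.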

[5] = system: human bronchial epithelial cells (BEAS-2B)

Row | Substance | Average cell viability, HEK293T [1] | Cell viability, HEK293T, Data1 [1] | Cell viability, HEK293T, Data2 [1] | Cell viability, HEK293T, Data3 [1] | Average cell viability, HPNE [2] | Cell viability, HPNE, Data1 [2] | Cell viability, HPNE, Data2 [2] | Cell viability, HPNE, Data3 [2] | Average cell viability, HUVEC [3] | Cell viability, HUVEC, Data1 [3] | Cell viability, HUVEC, Data2 [3] | Cell viability, HUVEC, Data3 [3] | Umami ([4]; peptide 0.1 mg/mL) | Umami ([4]; peptide 1 mg/mL) | Bitter ([4]; sensor C00, peptide 0.1 mg/mL) | Bitter ([4]; sensor C00, peptide 1 mg/mL) | Sour ([4]; sensor CA0, peptide 0.1 mg/mL) | Sour ([4]; sensor CA0, peptide 1 mg/mL) | Salty ([4]; sensor CT0, peptide 0.1 mg/mL) | Salty ([4]; sensor CT0, peptide 1 mg/mL) | further results
1 | LQPSLEH [TaPep59] | 98.64 | 100.88 | 99.94 | 95.11 | 92.71 | 105.62 | 84.46 | 88.05 | 104.79 | 97.39 | 106.49 | 110.48 | 1.85 | -6.02 | 7.83 | 1.90 | -3.89 | 15.44 | -19.53 | 15.85 | Sweet ([4]; sensor GL1, peptide 0.1 mg/mL): 6.34; Sweet ([4]; sensor GL1, peptide 1 mg/mL): -7.32; Average cell viability, BEAS-2B [5]: 100.60; Cell viability, BEAS-2B, Data1 [5]: 96.61; Cell viability, BEAS-2B, Data2 [5]: 109.87; Cell viability, BEAS-2B, Data3 [5]: 95.31
2 | KNDESVD [TaPep48] | 103.91 | 103.15 | 102.59 | 105.99 | 102.66 | 87.85 | 109.32 | 110.82 | 107.58 | 110.24 | 102.34 | 110.16 | 1.19 | -4.97 | 7.92 | 4.06 | -2.20 | 12.29 | -19.00 | 9.10 | Sweet ([4]; sensor GL1, peptide 0.1 mg/mL): 5.24; Sweet ([4]; sensor GL1, peptide 1 mg/mL): -3.88; Average cell viability, BEAS-2B [5]: 98.21; Cell viability, BEAS-2B, Data1 [5]: 105.18; Cell viability, BEAS-2B, Data2 [5]: 91.23; Cell viability, BEAS-2B, Data3 [5]: 98.21
3 | AQSSLS [TaPep40] | 100.57 | 103.15 | 101.26 | 97.29 | 106.99 | 100.53 | 109.02 | 111.41 | 101.30 | 102.66 | 110.88 | 90.37 | 2.37 | -3.91 | 7.48 | 3.31 | -5.48 | 10.99 | -19.59 | 10.09 | Sweet ([4]; sensor GL1, peptide 0.1 mg/mL): 10.64; Sweet ([4]; sensor GL1, peptide 1 mg/mL): -5.29; Average cell viability, BEAS-2B [5]: 101.16; Cell viability, BEAS-2B, Data1 [5]: 116.45; Cell viability, BEAS-2B, Data2 [5]: 94.02; Cell viability, BEAS-2B, Data3 [5]: 93.02
4 | DQEPVE [TaPep44] | 102.43 | 105.71 | 98.14 | 103.44 | 105.06 | 112.51 | 118.30 | 84.36 | 109.31 | 108.41 | 112.00 | 107.53 | 0.51 | -6.35 | 7.74 | 3.13 | -0.62 | 14.96 | -19.30 | 10.03 | Sweet ([4]; sensor GL1, peptide 0.1 mg/mL): 3.94; Sweet ([4]; sensor GL1, peptide 1 mg/mL): -11.10; Average cell viability, BEAS-2B [5]: 101.53; Cell viability, BEAS-2B, Data1 [5]: 108.18; Cell viability, BEAS-2B, Data2 [5]: 97.51; Cell viability, BEAS-2B, Data3 [5]: 98.90
